Results on one compound are retold here after patent US20060280725A1, “Compositions and methods of treating and diagnosing hepatoma” (priority 2003, published 2006).

Where two headings read alike, the source gives them in different places.

One experiment deals with Focus. The experiment is described as follows: Glutamine transport assay (initial-rate uptake, kinetic analysis). The experiment is classed as cell-based, human. The procedure:
(§1) Glutamine Transport Assays. Measurement of initial-rate glutamine uptake was carried out via the cluster-tray method originally described by Gazzola (21) as reported previously (6, 9). Briefly, after trypsinization hepatoma cells were plated at a density of 1×10^5 cells/well in 24-well culture plates (Costar Corp., Cambridge, Mass.) and allowed to grow to >80% confluence, typically one to two days later. For initial-rate measurements, the radiotracer utilized was L-[G-^3H] glutamine (Amersham Corp., Arlington Heights, Ill.) at 4 μCi/ml, in the presence of unlabeled L-glutamine at 50 μM. For kinetic studies, the amount of unlabeled glutamine in the transport buffer varied from 10 μM to 10 mM. All transport measurements were carried out at 37° C. and were terminated after 30 s by three rapid washes with an ice-cold phosphate-buffered saline solution. Intracellular radiolabeled glutamine was extracted with 0.2 ml/well of 0.2% sodium dodecyl sulfate (SDS) and 0.2 N NaOH; after 1 h, 0.1 ml of the lysate was neutralized with 10 μl of 2 N HCl and subjected to scintillation spectrophotometry in a Packard TopCount™ (Packard Instruments, Meriden, Conn.). The remaining lysate was utilized for the determination of cellular protein by the bicinchoninic acid (BCA) method (Pierce Chemical Co., Rockford, Ill.). Rates of glutamine transport were calculated from the cpm per sample, the specific activity of the uptake mix (in cpm/nmol) and normalized to cellular protein content in a Microsoft Excel® spreadsheet program. Transport values obtained in the absence of extracellular Na^+ (diffusion and Na^+-independent uptake) were subtracted from those in the presence of Na^+ (total uptake) to yield Na^+-dependent rates which are reported in units of nmol•mg^−1 protein•30 s^−1. All transport values depicted are the average±standard deviation of four separate determinations. Kinetic analysis of Eadie-Hofstee linearized transport data (v vs. v/[L-GLN]) was performed by regression analysis (Cricket Graph®, Computer Associates, Islandia, N.Y.). Nonlinear regression analysis was performed with DataDesk (Data Description, Inc. Ithaca, N.Y.) and Excel for two component Michaelis-Menten kinetics: v=((Vmax1×[S])/(Km1+[S])+(Vmax2×[S])/(Km2+[S])).
(§2) Therefore, two component nonlinear regression analyses were performed on the Na^+-dependent transport kinetic data, where they were adequately resolved into high and low affinity components in all cell lines under study. The results are graphically depicted in FIG. 1 as insets. […] Possibilities for each cell line will be offered discussion based on the molecular analyses described below.

Another experiment has as its system Hep3B. Described as above. It is filed as cell-based, human. The procedure:
as §1, §2

The test system of a further experiment is Huh-7. The description is as above. It is filed as cell-based, human. The protocol:
as §1, §2

The test system of a further experiment is PLC/PRF/5. The description is as above. The experiment is classed as cell-based, human. The protocol:
as §1, §2

In the next experiment the test system is THLE-5B. Briefly: Glutamine transport assay (inhibition and kinetic analysis). The experiment is classed as cell-based, human. The protocol: FIG. 1. Amino acid inhibition analysis of glutamine transport in the Hep3B, PLC/PRF/5 and Focus human hepatoma cell lines and the THLE-5B SV40-immortalized human liver epithelial cell line. The Na^+-dependent transport of 50 μM L-glutamine was measured as described in the Methods section in the absence or presence of the indicated unlabeled amino acids at 5 mM. Testing of cysteine (CYSH) required the presence of 5 mM dithiothreitol (DTT) as a reducing agent, so DTT was tested alone as well. Arrows indicate the relative transport rates for 50 μM L-glutamine in primary human adult (solid arrow) and fetal (open arrow) hepatocytes. The results represent the average±SD of four separate determinations (*p<0.010 versus control). The Eadie-Hofstee plots of the kinetic analyses are shown as an inset in each figure, with the dashed lines representing the resolved high and low affinity components of the composite data (solid line). The derived values of the kinetic constants for each component are given in the Results section.
as §1
It should be noted that extensive depletion of intracellular amino acid pools were not performed prior to transport measurements in these studies because we sought to assess glutamine uptake under more physiological conditions. […]

The next experiment has as its system System A & N isoforms. The note with it: read-out: deduced Km values for glutamine; cited from earlier work.
Where [1] appears, read: read-out: Km, high affinity component.
Setting [2] is: read-out: Km, low affinity system.
The mark [3] stands for this setting: read-out: Km, high affinity system.
The mark [4] stands for this setting: read-out: Km, low affinity component.

The Km is the substrate concentration at which the rate is half of its maximum. On to `NC(=O)CC[C@H](N)C(=O)O` [glutamine, L-glutamine], for which the “Vmax, high affinity component” value in the experiment on Focus is listed as 2.2 nmol•mg^−1 protein•30 s^−1; in the experiment on Huh-7, 7.3 nmol•mg^−1 protein•30 s^−1; in the experiment with THLE-5B it was 30.8 nmol•mg^−1 protein•30 s^−1. Further, the figures for the “Vmax, low affinity system” value in the experiment with Focus, in the experiment on Hep3B and in the experiment with PLC/PRF/5 were 2.7 nmol•mg^−1 protein•30 s^−1, 4.5 nmol•mg^−1 protein•30 s^−1 and 3.9 nmol•mg^−1 protein•30 s^−1, respectively. In addition, the Km with Focus (setting [1]) came out at 122 µM; in the experiment on Focus (setting [2]) it was 1200 µM; with Hep3B (Na+-dependent glutamine transport, read-out: Km, low affinity system), 1000 µM; with Hep3B (setting [3]), 90 µM; in the experiment with Huh-7 (setting [1]) it was 50 µM; in the experiment with Huh-7 (setting [4]), 861 µM. The Km is 23 µM with PLC/PRF/5 (setting [3]); 775 µM in the experiment on PLC/PRF/5 (setting [2]); 135 µM in the experiment on THLE-5B (setting [1]); 1300 µM in the experiment with THLE-5B (setting [4]); 1000 to 3000 µM in the experiment on System A & N isoforms. Also, the “Vmax, high affinity system” value in the experiment on Hep3B was 3.0 nmol•mg^−1 protein•30 s^−1; with PLC/PRF/5 it was 0.82 nmol•mg^−1 protein•30 s^−1. The “Vmax, low affinity component” value in the experiment on Huh-7 is given as 11.7 nmol•mg^−1 protein•30 s^−1; with THLE-5B, 32.6 nmol•mg^−1 protein•30 s^−1.
